Values quoted from earlier work in US20210308071A1, “Treatment method to abort and or reduce the severity of upper respiratory viral illness as well as to prevent upper respiratory viral illness in humans” (priority 2020, published 2021).
Where two headings read alike, the source gives them in different places.

Details: for orally administered dose excreted as the glucuronic acid conjugate within 24 hours: humans

CC1(C)C2CCC1(C)C(O)C2 (stereo not drawn) [Borneol]
administered dose detected as the glucuronic acid conjugate in human urine (10 hours after ingestion of 2000 mg): 81%
orally administered dose excreted as the glucuronic acid conjugate within 24 hours (oral 1000 mg): 81%
orally administered dose excreted as the glucuronic acid conjugate within 24 hours (oral 2000 mg): 94%
